From PubChem BioAssay AID252 (DTP/NCI, 2004)
Values joined by “and” are separate entries in the source; they are usually repeats but may differ in a detail not shown here. Identical values can stand only once. Inconclusive results and toxic doses are left out.

Tested on: BDF1 mice, intracerebral L1210 leukemia, survival T/C
Experiment: NCI In Vivo Anticancer Drug Screen. Data for tumor model L1210 Leukemia (intracerebral) in B6D2F1 (BDF1) mice
Settings: higher = longer survival
Procedure, shortened: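 Readout is the T/C ratio: survival of compound-treated animals over that of vehicle-treated controls, in mice bearing transplantable tumour.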

C#CCOCC(CCl)OC(=O)Nc1ccccc1 (stereo unspecified)
T/C (endpoint: mean survival time, dose: 25.0 mg/kg/injection, schedule: Q04DX003 (ip), vehicle: saline with Tween-80): 100 % of control
T/C (endpoint: mean survival time, dose: 50.0 mg/kg/injection, schedule: Q04DX003 (ip), vehicle: saline with Tween-80): 115 % of control
T/C (endpoint: mean survival time, dose: 100.0 mg/kg/injection, schedule: Q04DX003 (ip), vehicle: saline with Tween-80): 105 % of control
T/C (endpoint: mean survival time, dose: 200.0 mg/kg/injection, schedule: Q04DX003 (ip), vehicle: saline with Tween-80): 109 % of control
T/C (endpoint: mean survival time, dose: 400.0 mg/kg/injection, schedule: Q04DX003 (ip), vehicle: saline with Tween-80): 105 % of control

OC(CBr)C(O)C(O)C(O)CBr (stereo unspecified)
T/C (endpoint: mean survival time, dose: 25.0 mg/kg/injection, schedule: Q01DX009 (ip), vehicle: steriod suspending solution): 108 % of control
T/C (endpoint: mean survival time, dose: 50.0 mg/kg/injection, schedule: Q01DX009 (ip), vehicle: steriod suspending solution): 121 % of control
T/C (endpoint: mean survival time, dose: 100.0 mg/kg/injection, schedule: Q01DX009 (ip), vehicle: steriod suspending solution): 117 % of control

OCCN1CCN(CCCN2c3ccccc3Sc3ccc(C(F)(F)F)cc32)CC1
T/C (endpoint: mean survival time, dose: 12.5 mg/kg/injection, schedule: Q04DX003 (ip), vehicle: saline): 102 % of control
T/C (endpoint: mean survival time, dose: 25.0 mg/kg/injection, schedule: Q04DX003 (ip), vehicle: saline): 106 % of control
T/C (endpoint: mean survival time, dose: 50.0 mg/kg/injection, schedule: Q04DX003 (ip), vehicle: saline): 112 % of control
T/C (endpoint: mean survival time, dose: 100.0 mg/kg/injection, schedule: Q04DX003 (ip), vehicle: saline): 94 % of control

CCOC(=O)[C@H]1CCC[C@@H](NC(=O)N(CCCl)N=O)C1
T/C (endpoint: mean survival time, dose: 14.0 mg/kg/injection, schedule: Q01DX001 (ip), vehicle: other): 103 % of control
T/C (endpoint: mean survival time, dose: 21.0 mg/kg/injection, schedule: Q01DX001 (ip), vehicle: other): 104 % of control
T/C (endpoint: mean survival time, dose: 31.0 mg/kg/injection, schedule: Q01DX001 (ip), vehicle: other): 111 % of control
T/C (endpoint: mean survival time, dose: 47.0 mg/kg/injection, schedule: Q01DX001 (ip), vehicle: other): 109 % of control

O=C1C(N2CC2)=C(N2CC2)C(=O)C(N2CC2)=C1N1CC1
T/C (endpoint: mean survival time, dose: 0.02 mg/kg/injection, schedule: Q01DX009 (ip), vehicle: saline): 102 % of control
T/C (endpoint: mean survival time, dose: 0.04 mg/kg/injection, schedule: Q01DX009 (ip), vehicle: saline): 120 % of control
T/C (endpoint: mean survival time, dose: 0.16 mg/kg/injection, schedule: Q01DX009 (ip), vehicle: saline): 112 % of control

O=NN(CCCl)C(=O)NC1CCS(=O)(=O)CC1
T/C (endpoint: mean survival time, dose: 7.5 mg/kg/injection, schedule: Q01DX001 (ip), vehicle: carboxymethylcellulose (CMC)): 212 % of control
T/C (endpoint: mean survival time, dose: 8.0 mg/kg/injection, schedule: Q01DX001 (ip), vehicle: carboxymethylcellulose (CMC)): 171 % of control and 172 % of control
T/C (endpoint: mean survival time, dose: 11.4 mg/kg/injection, schedule: Q01DX001 (ip), vehicle: carboxymethylcellulose (CMC)): 289 % of control
T/C (endpoint: mean survival time, dose: 12.0 mg/kg/injection, schedule: Q01DX001 (ip), vehicle: carboxymethylcellulose (CMC)): 197 % of control and 281 % of control
T/C (endpoint: mean survival time, dose: 17.0 mg/kg/injection, schedule: Q01DX001 (ip), vehicle: carboxymethylcellulose (CMC)): 298 % of control
T/C (endpoint: mean survival time, dose: 18.0 mg/kg/injection, schedule: Q01DX001 (ip), vehicle: carboxymethylcellulose (CMC)): 151 % of control and 251 % of control
T/C (endpoint: mean survival time, dose: 25.0 mg/kg/injection, schedule: Q01DX001 (ip), vehicle: carboxymethylcellulose (CMC)): 151 % of control
T/C (endpoint: mean survival time, dose: 27.0 mg/kg/injection, schedule: Q01DX001 (ip), vehicle: carboxymethylcellulose (CMC)): 88 % of control
T/C (endpoint: mean survival time, dose: 37.0 mg/kg/injection, schedule: Q01DX001 (ip), vehicle: carboxymethylcellulose (CMC)): 90 % of control

O=NN(CCF)C(=O)Nc1ccccc1
T/C (endpoint: mean survival time, dose: 8.0 mg/kg/injection, schedule: Q01DX001 (ip), vehicle: other): 120 % of control

CN(N=O)C(=O)Nc1ccc(F)cc1
T/C (endpoint: mean survival time, dose: 75.0 mg/kg/injection, schedule: Q01DX001 (ip), vehicle: carboxymethylcellulose (CMC)): 101 % of control
T/C (endpoint: mean survival time, dose: 150.0 mg/kg/injection, schedule: Q01DX001 (ip), vehicle: carboxymethylcellulose (CMC)): 103 % of control

N=c1nc2n(cc1F)[C@@H]1O[C@H](CO)[C@@H](O)[C@@H]1O2
T/C (endpoint: median survival time, dose: 100.0 mg/kg/injection, schedule: Q01DX009 (ip), vehicle: saline): 186 % of control
T/C (endpoint: median survival time, dose: 200.0 mg/kg/injection, schedule: Q01DX009 (ip), vehicle: saline): 204 % of control
T/C (endpoint: median survival time, dose: 400.0 mg/kg/injection, schedule: Q01DX009 (ip), vehicle: saline): 344 % of control

CC[n+]1c(-c2ccccc2)c2cc(N)ccc2c2ccc(N)cc21
T/C (endpoint: mean survival time, dose: 1.25 mg/kg/injection, schedule: Q01DX Z (ip), vehicle: saline): 104 % of control
T/C (endpoint: mean survival time, dose: 2.5 mg/kg/injection, schedule: Q01DX Z (ip), vehicle: saline): 100 % of control
T/C (endpoint: mean survival time, dose: 5.0 mg/kg/injection, schedule: Q01DX Z (ip), vehicle: saline): 101 % of control
T/C (endpoint: mean survival time, dose: 7.5 mg/kg/injection, schedule: Q01DX Z (ip), vehicle: saline): 100 % of control
T/C (endpoint: mean survival time, dose: 15.0 mg/kg/injection, schedule: Q01DX Z (ip), vehicle: saline): 86 % of control

CN(N=O)C(=O)Nc1c[nH]c(=O)[nH]c1=O
T/C (endpoint: mean survival time, dose: 60.0 mg/kg/injection, schedule: Q01DX001 (ip), vehicle: saline): 103 % of control
T/C (endpoint: mean survival time, dose: 120.0 mg/kg/injection, schedule: Q01DX001 (ip), vehicle: saline): 104 % of control
T/C (endpoint: mean survival time, dose: 480.0 mg/kg/injection, schedule: Q01DX001 (ip), vehicle: saline): 108 % of control
T/C (endpoint: mean survival time, dose: 960.0 mg/kg/injection, schedule: Q01DX001 (ip), vehicle: saline): 86 % of control

CNNCc1ccc(C(=O)NC(C)C)cc1
T/C (endpoint: mean survival time, dose: 25.0 mg/kg/injection, schedule: Q01DX009 (ip), vehicle: saline): 105 % of control
T/C (endpoint: mean survival time, dose: 40.0 mg/kg/injection, schedule: Q01DX Z (ip), vehicle: saline): 122 % of control
T/C (endpoint: mean survival time, dose: 50.0 mg/kg/injection, schedule: Q01DX009 (ip), vehicle: saline): 108 % of control
T/C (endpoint: mean survival time, dose: 64.0 mg/kg/injection, schedule: Q01DX010 (oral), vehicle: clinical formulation): 102 % of control
T/C (endpoint: mean survival time, dose: 160.0 mg/kg/injection, schedule: Q01DX Z (ip), vehicle: saline): 155 % of control
T/C (endpoint: median survival time, dose: 0.5 mg/kg/injection, schedule: Q01DX010 (ip), vehicle: clinical formulation): 105 % of control
T/C (endpoint: median survival time, dose: 0.5 mg/kg/injection, schedule: Q01DX010 (ip), vehicle: saline): 106 % of control
T/C (endpoint: median survival time, dose: 1.0 mg/kg/injection, schedule: Q01DX010 (ip), vehicle: clinical formulation): 105 % of control
T/C (endpoint: median survival time, dose: 1.0 mg/kg/injection, schedule: Q01DX010 (ip), vehicle: saline): 103 % of control
T/C (endpoint: median survival time, dose: 1.0 mg/kg/injection, schedule: Q01DX010 (oral), vehicle: clinical formulation): 105 % of control
T/C (endpoint: median survival time, dose: 2.0 mg/kg/injection, schedule: Q01DX010 (ip), vehicle: clinical formulation): 103 % of control
T/C (endpoint: median survival time, dose: 2.0 mg/kg/injection, schedule: Q01DX010 (ip), vehicle: saline): 106 % of control
T/C (endpoint: median survival time, dose: 2.0 mg/kg/injection, schedule: Q01DX010 (oral), vehicle: clinical formulation): 103 % of control
T/C (endpoint: median survival time, dose: 4.0 mg/kg/injection, schedule: Q01DX010 (ip), vehicle: clinical formulation): 99 % of control
T/C (endpoint: median survival time, dose: 4.0 mg/kg/injection, schedule: Q01DX010 (ip), vehicle: saline): 106 % of control
T/C (endpoint: median survival time, dose: 4.0 mg/kg/injection, schedule: Q01DX010 (oral), vehicle: clinical formulation): 105 % of control
T/C (endpoint: median survival time, dose: 8.0 mg/kg/injection, schedule: Q01DX010 (ip), vehicle: clinical formulation): 101 % of control
T/C (endpoint: median survival time, dose: 8.0 mg/kg/injection, schedule: Q01DX010 (ip), vehicle: saline): 111 % of control
T/C (endpoint: median survival time, dose: 8.0 mg/kg/injection, schedule: Q01DX010 (oral), vehicle: clinical formulation): 95 % of control
T/C (endpoint: median survival time, dose: 16.0 mg/kg/injection, schedule: Q01DX010 (ip), vehicle: clinical formulation): 103 % of control
T/C (endpoint: median survival time, dose: 16.0 mg/kg/injection, schedule: Q01DX010 (ip), vehicle: saline): 109 % of control
T/C (endpoint: median survival time, dose: 16.0 mg/kg/injection, schedule: Q01DX010 (oral), vehicle: clinical formulation): 92 % of control
T/C (endpoint: median survival time, dose: 32.0 mg/kg/injection, schedule: Q01DX010 (ip), vehicle: clinical formulation): 101 % of control
T/C (endpoint: median survival time, dose: 32.0 mg/kg/injection, schedule: Q01DX010 (ip), vehicle: saline): 104 % of control
T/C (endpoint: median survival time, dose: 32.0 mg/kg/injection, schedule: Q01DX010 (oral), vehicle: clinical formulation): 97 % of control
T/C (endpoint: median survival time, dose: 64.0 mg/kg/injection, schedule: Q01DX010 (oral), vehicle: clinical formulation): 109 % of control
T/C (endpoint: median survival time, dose: 128.0 mg/kg/injection, schedule: Q01DX010 (oral), vehicle: clinical formulation): 104 % of control

c1cc2n(n1)CCN2
T/C (endpoint: median survival time, dose: 50.0 mg/kg/injection, schedule: Q01DX009 (ip), vehicle: water): 94 % of control
T/C (endpoint: median survival time, dose: 100.0 mg/kg/injection, schedule: Q01DX009 (ip), vehicle: water): 106 % of control
T/C (endpoint: median survival time, dose: 100.0 mg/kg/injection, schedule: Q04DX003 (ip), vehicle: water): 102 % of control
T/C (endpoint: median survival time, dose: 200.0 mg/kg/injection, schedule: Q01DX009 (ip), vehicle: water): 107 % of control
T/C (endpoint: median survival time, dose: 200.0 mg/kg/injection, schedule: Q04DX003 (ip), vehicle: water): 114 % of control
T/C (endpoint: median survival time, dose: 300.0 mg/kg/injection, schedule: Q04DX003 (ip), vehicle: water): 116 % of control
